# “Also recorded” adds a separate entry of the source.
# Experiments:
# [1] = system: 32 members of the human bromodomain family; test: BromoScan single-point screen, panel profile; assay type: binding; conditions: single-point 1 μM, 32 bromodomains; in words
# Description: (§1) The BromoScan is an assay that measures the engagement of compounds with bromodomain proteins by utilizing DNA-tagged bromodomain and immobilized ligand attached to solid support. In the control test, DNA-tagged bromodomain binds to the ligand and the bromodomain is captured on the solid support. Compounds that compete for the bromodomain binding location on the ligand will prevent the bromodomain from binding, resulting in less protein captured on the solid support.
# [2] = system: MM.1S multiple myeloma line; test: ATPlite viability assay, MM.1S; conditions: 72 hour treatment, in words
# Description: 500 cells/well were plated at a volume of 40 μL/well in white tissue culture treated 384 well assay plates (Thermo Scientific) before DMSO compound stock was added from pre-diluted plates by pin transfer using a Janus Workstation (PerkinElmer, USA). […] Assay plates were allowed to equilibrate to RT for 30 min before reconstituted ATPlite 1 Step reagent (Perkin Elmer) was dispensed at 1:1 volume/well by EL406 automated liquid handler (Biotek, USA).
# [3] = molecular target: T1, CREBBP (Homo sapiens, UniProt Q92793); test: BromoScan single-point screen; assay type: binding; conditions: percent of protein captured on solid support vs control
# T1 construct: utilizing DNA-tagged bromodomain and immobilized ligand attached to solid support
# T1 sequence (Q92793 1085-1192 limits assumed): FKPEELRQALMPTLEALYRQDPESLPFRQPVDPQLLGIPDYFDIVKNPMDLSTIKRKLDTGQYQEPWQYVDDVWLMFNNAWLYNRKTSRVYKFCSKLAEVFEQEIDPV
# Description: as §1
# [4] = molecular target: T2, EP300 (Homo sapiens, UniProt Q09472); test: BromoScan single-point screen; assay type: binding; conditions: percent of protein captured on solid support vs control
# T2 construct: utilizing DNA-tagged bromodomain and immobilized ligand attached to solid support
# T2 sequence (Q09472 1049-1156 limits assumed): as the sequence (Q92793 1085-1192 limits assumed) above, with N47S, V73I, F93Y, A98S counted along it
# Description: as §1
# [5] = molecular target: T3, BRDT(1) (Homo sapiens, UniProt Q58F21); test: BromoScan single-point screen; assay type: binding; conditions: percent of protein captured on solid support vs control
# T3 construct: utilizing DNA-tagged bromodomain and immobilized ligand attached to solid support
# Description: as §1
# [6] = molecular target: T4, BRPF1 (Homo sapiens, UniProt P55201); test: BromoScan single-point screen; assay type: binding; conditions: percent of protein captured on solid support vs control
# T4 construct: utilizing DNA-tagged bromodomain and immobilized ligand attached to solid support
# T4 sequence (P55201 628-732 limits assumed): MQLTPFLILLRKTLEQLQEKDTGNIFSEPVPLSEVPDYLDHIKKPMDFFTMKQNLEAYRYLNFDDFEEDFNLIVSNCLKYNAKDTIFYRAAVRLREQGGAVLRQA
# Description: as §1
# [7] = molecular target: T5, BRD3(1) (Homo sapiens, UniProt Q15059); test: BromoScan single-point screen; assay type: binding; conditions: percent of protein captured on solid support vs control
# T5 construct: utilizing DNA-tagged bromodomain and immobilized ligand attached to solid support
# T5 sequence (Q15059 34-140 limits assumed): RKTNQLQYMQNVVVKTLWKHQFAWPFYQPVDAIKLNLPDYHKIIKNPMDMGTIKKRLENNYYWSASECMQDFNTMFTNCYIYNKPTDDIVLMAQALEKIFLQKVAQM
# Description: as §1
# [8] = molecular target: T6, SMARCA2 (Homo sapiens, UniProt P51531); test: BromoScan single-point screen; assay type: binding; conditions: percent of protein captured on solid support vs control
# T6 construct: utilizing DNA-tagged bromodomain and immobilized ligand attached to solid support
# T6 sequence (P51531 1378-1506 limits assumed): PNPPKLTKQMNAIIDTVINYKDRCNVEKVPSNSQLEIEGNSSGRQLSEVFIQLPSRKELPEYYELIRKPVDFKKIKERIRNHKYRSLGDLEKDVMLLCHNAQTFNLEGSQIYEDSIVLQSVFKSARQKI
# Description: as §1
# [9] = molecular target: T7, BRPF3 (Homo sapiens, UniProt Q9ULD4); test: BromoScan single-point screen; assay type: binding; conditions: percent of protein captured on solid support vs control
# T7 construct: utilizing DNA-tagged bromodomain and immobilized ligand attached to solid support
# T7 sequence (Q9ULD4 589-693 limits assumed): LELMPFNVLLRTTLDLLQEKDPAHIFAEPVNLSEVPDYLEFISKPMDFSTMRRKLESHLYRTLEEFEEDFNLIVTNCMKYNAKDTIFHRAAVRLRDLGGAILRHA
# Description: as §1
# [10] = molecular target: T8, FALZ (Homo sapiens, UniProt Q12830); test: BromoScan single-point screen; assay type: binding; conditions: percent of protein captured on solid support vs control
# T8 construct: utilizing DNA-tagged bromodomain and immobilized ligand attached to solid support
# Description: as §1
# [11] = molecular target: T9, TRIM24 (PHD, Bromo.) (Homo sapiens, UniProt O15164); test: BromoScan single-point screen; assay type: binding; conditions: percent of protein captured on solid support vs control
# T9 construct: utilizing DNA-tagged bromodomain and immobilized ligand attached to solid support
# T9 sequence (O15164 824-1006 limits assumed): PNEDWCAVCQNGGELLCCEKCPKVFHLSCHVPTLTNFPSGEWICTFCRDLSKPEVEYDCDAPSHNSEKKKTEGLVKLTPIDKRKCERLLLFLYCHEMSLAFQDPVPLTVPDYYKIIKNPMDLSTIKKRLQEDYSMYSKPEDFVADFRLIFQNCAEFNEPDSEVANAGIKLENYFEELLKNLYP
# Description: as §1
# [12] = molecular target: T10, WDR9(2) (Homo sapiens, UniProt Q9NSI6); test: BromoScan single-point screen; assay type: binding; conditions: percent of protein captured on solid support vs control
# T10 construct: utilizing DNA-tagged bromodomain and immobilized ligand attached to solid support
# T10 sequence (Q9NSI6 1313-1418 limits assumed): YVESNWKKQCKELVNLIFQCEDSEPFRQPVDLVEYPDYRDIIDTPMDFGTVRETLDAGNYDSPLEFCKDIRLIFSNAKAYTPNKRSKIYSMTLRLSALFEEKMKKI
# Description: as §1
# [13] = molecular target: T11, BRD1 (Homo sapiens, UniProt O95696); test: BromoScan single-point screen; assay type: binding; conditions: percent of protein captured on solid support vs control
# T11 construct: utilizing DNA-tagged bromodomain and immobilized ligand attached to solid support
# T11 sequence (O95696 562-666 limits assumed): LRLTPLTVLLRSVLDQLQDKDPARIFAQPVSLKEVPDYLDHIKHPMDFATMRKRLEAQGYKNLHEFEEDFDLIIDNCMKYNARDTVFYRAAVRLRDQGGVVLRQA
# Description: as §1
# [14] = molecular target: T12, BRDT(2) (Homo sapiens, UniProt Q58F21); test: BromoScan single-point screen; assay type: binding; conditions: percent of protein captured on solid support vs control
# T12 construct: utilizing DNA-tagged bromodomain and immobilized ligand attached to solid support
# Description: as §1
# [15] = molecular target: T13, ATAD2B (Homo sapiens, UniProt Q9ULI0); test: BromoScan single-point screen; assay type: binding; conditions: percent of protein captured on solid support vs control
# T13 construct: utilizing DNA-tagged bromodomain and immobilized ligand attached to solid support
# T13 sequence (Q9ULI0 951-1066 limits assumed): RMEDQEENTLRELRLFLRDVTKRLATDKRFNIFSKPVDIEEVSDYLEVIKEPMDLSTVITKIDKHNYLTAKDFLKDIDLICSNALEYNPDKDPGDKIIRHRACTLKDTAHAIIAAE
# Description: as §1
# [16] = molecular target: T14, BRD2(1) (Homo sapiens, UniProt P25440); test: BromoScan single-point screen; assay type: binding; conditions: percent of protein captured on solid support vs control
# T14 construct: utilizing DNA-tagged bromodomain and immobilized ligand attached to solid support
# T14 sequence (P25440 74-180 limits assumed): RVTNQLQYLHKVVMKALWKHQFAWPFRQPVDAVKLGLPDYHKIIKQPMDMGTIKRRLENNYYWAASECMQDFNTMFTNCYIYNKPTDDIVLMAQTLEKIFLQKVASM
# Description: as §1
# [17] = molecular target: T15, GCN5L2 (Homo sapiens, UniProt Q92830); test: BromoScan single-point screen; assay type: binding; conditions: percent of protein captured on solid support vs control
# T15 construct: utilizing DNA-tagged bromodomain and immobilized ligand attached to solid support
# T15 sequence (Q92830 728-832 limits assumed): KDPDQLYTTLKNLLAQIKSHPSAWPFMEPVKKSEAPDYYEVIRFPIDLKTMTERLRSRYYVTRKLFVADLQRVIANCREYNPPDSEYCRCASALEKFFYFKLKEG
# Description: as §1
# [18] = molecular target: T16, PBRM1(5) (Homo sapiens, UniProt Q86U86); test: BromoScan single-point screen; assay type: binding; conditions: percent of protein captured on solid support vs control
# T16 construct: utilizing DNA-tagged bromodomain and immobilized ligand attached to solid support
# T16 sequence (Q86U86 653-763 limits assumed): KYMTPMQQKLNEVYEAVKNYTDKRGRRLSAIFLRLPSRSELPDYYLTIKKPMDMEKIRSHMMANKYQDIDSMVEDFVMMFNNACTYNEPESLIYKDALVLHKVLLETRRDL
# Description: as §1
# [19] = molecular target: T17, ATAD2A (Homo sapiens, UniProt Q6PL18); test: BromoScan single-point screen; assay type: binding; conditions: percent of protein captured on solid support vs control
# T17 construct: utilizing DNA-tagged bromodomain and immobilized ligand attached to solid support
# T17 sequence (Q6PL18 980-1092 limits assumed): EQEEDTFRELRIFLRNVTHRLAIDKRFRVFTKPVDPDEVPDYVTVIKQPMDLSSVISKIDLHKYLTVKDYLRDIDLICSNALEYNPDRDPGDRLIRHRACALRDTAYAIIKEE
# Description: as §1
# [20] = molecular target: T18, BRD7 (Homo sapiens, UniProt Q9NPI1); test: BromoScan single-point screen; assay type: binding; conditions: percent of protein captured on solid support vs control
# T18 construct: utilizing DNA-tagged bromodomain and immobilized ligand attached to solid support
# Description: as §1
# T18 sequence (Q9NPI1 131-235 limits assumed): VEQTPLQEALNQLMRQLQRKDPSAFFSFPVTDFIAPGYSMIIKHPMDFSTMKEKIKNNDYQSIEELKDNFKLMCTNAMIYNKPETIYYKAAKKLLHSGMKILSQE
# [21] = molecular target: T19, TAF1(2) (Homo sapiens, UniProt P21675); test: BromoScan single-point screen; assay type: binding; conditions: percent of protein captured on solid support vs control
# T19 construct: utilizing DNA-tagged bromodomain and immobilized ligand attached to solid support
# T19 sequence (P21675 1519-1628 limits assumed): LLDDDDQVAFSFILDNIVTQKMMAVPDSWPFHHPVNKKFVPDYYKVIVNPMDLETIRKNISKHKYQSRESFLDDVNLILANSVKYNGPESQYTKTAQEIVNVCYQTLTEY
# Description: as §1
# [22] = molecular target: T20, BAZ^2B (Homo sapiens, UniProt Q9UIF8); test: BromoScan single-point screen; assay type: binding; conditions: percent of protein captured on solid support vs control
# T20 construct: utilizing DNA-tagged bromodomain and immobilized ligand attached to solid support
# T20 sequence (Q9UIF8 2060-2164 limits assumed): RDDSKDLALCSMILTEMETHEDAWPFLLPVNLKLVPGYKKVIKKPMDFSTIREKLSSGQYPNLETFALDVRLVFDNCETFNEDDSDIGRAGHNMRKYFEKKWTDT
# Description: as §1
# [23] = molecular target: T21, TAF1L(2) (Homo sapiens, UniProt Q8IZX4); test: BromoScan single-point screen; assay type: binding; conditions: percent of protein captured on solid support vs control
# T21 construct: utilizing DNA-tagged bromodomain and immobilized ligand attached to solid support
# T21 sequence (Q8IZX4 1517-1626 limits assumed): as the sequence (P21675 1519-1628 limits assumed) above, with V46M, M51V, V102I, L107I counted along it
# Description: as §1
# [24] = molecular target: T22, BAZ^2A (Homo sapiens, UniProt Q9UIF9); test: BromoScan single-point screen; assay type: binding; conditions: percent of protein captured on solid support vs control
# T22 construct: utilizing DNA-tagged bromodomain and immobilized ligand attached to solid support
# T22 sequence (Q9UIF9 1793-1897 limits assumed): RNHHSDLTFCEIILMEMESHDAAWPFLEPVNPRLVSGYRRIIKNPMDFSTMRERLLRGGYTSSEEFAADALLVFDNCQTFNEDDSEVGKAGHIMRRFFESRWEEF
# Description: as §1
# [25] = molecular target: T23, CECR2 (Homo sapiens, UniProt Q9BXF3); test: BromoScan single-point screen; assay type: binding; conditions: percent of protein captured on solid support vs control
# T23 construct: utilizing DNA-tagged bromodomain and immobilized ligand attached to solid support
# T23 sequence (Q9BXF3 434-538 limits assumed): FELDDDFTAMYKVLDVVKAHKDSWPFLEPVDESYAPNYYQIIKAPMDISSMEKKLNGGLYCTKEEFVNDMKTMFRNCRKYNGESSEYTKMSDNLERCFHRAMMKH
# Description: as §1
# [26] = molecular target: T24, PBRM1(2) (Homo sapiens, UniProt Q86U86); test: BromoScan single-point screen; assay type: binding; conditions: percent of protein captured on solid support vs control
# T24 construct: utilizing DNA-tagged bromodomain and immobilized ligand attached to solid support
# T24 sequence (Q86U86 177-287 limits assumed): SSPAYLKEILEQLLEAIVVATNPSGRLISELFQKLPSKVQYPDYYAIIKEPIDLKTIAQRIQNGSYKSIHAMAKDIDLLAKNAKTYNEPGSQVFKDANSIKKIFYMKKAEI
# Description: as §1
# [27] = molecular target: T25, PCAF (Homo sapiens, UniProt Q92831); test: BromoScan single-point screen; assay type: binding; conditions: percent of protein captured on solid support vs control
# T25 construct: utilizing DNA-tagged bromodomain and immobilized ligand attached to solid support
# T25 sequence (Q92831 723-827 limits assumed): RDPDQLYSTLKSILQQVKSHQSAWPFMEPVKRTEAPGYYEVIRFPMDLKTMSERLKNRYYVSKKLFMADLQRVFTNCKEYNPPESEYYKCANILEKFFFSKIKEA
# Description: as §1
# [28] = molecular target: T26, BRD3(2) (Homo sapiens, UniProt Q15059); test: BromoScan single-point screen; assay type: binding; conditions: percent of protein captured on solid support vs control
# T26 construct: utilizing DNA-tagged bromodomain and immobilized ligand attached to solid support
# T26 sequence (Q15059 306-415 limits assumed): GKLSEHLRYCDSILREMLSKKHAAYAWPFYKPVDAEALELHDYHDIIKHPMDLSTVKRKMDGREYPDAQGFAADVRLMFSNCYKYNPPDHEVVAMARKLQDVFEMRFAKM
# Description: as §1
# [29] = molecular target: T27, BRD2(2) (Homo sapiens, UniProt P25440); test: BromoScan single-point screen; assay type: binding; conditions: percent of protein captured on solid support vs control
# T27 construct: utilizing DNA-tagged bromodomain and immobilized ligand attached to solid support
# T27 sequence (P25440 344-453 limits assumed): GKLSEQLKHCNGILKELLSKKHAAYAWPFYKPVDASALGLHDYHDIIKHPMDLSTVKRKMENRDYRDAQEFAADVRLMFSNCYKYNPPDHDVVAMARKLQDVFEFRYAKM
# Description: as §1
# [30] = molecular target: T28, SMARCA4 (Homo sapiens, UniProt P51532); test: BromoScan single-point screen; assay type: binding; conditions: percent of protein captured on solid support vs control
# T28 construct: utilizing DNA-tagged bromodomain and immobilized ligand attached to solid support
# T28 sequence (P51532 1453-1564 limits assumed): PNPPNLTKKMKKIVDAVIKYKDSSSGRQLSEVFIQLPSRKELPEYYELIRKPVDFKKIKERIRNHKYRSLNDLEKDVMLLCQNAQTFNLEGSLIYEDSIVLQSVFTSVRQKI
# Description: as §1
# [31] = molecular target: BRD7 (Homo sapiens, UniProt Q9NPI1); test: BRD7 immunoblot in MOLM-13; conditions: MOLM-13, 4 hour treatment
# Target sequence in this assay (Q9NPI1 whole entry): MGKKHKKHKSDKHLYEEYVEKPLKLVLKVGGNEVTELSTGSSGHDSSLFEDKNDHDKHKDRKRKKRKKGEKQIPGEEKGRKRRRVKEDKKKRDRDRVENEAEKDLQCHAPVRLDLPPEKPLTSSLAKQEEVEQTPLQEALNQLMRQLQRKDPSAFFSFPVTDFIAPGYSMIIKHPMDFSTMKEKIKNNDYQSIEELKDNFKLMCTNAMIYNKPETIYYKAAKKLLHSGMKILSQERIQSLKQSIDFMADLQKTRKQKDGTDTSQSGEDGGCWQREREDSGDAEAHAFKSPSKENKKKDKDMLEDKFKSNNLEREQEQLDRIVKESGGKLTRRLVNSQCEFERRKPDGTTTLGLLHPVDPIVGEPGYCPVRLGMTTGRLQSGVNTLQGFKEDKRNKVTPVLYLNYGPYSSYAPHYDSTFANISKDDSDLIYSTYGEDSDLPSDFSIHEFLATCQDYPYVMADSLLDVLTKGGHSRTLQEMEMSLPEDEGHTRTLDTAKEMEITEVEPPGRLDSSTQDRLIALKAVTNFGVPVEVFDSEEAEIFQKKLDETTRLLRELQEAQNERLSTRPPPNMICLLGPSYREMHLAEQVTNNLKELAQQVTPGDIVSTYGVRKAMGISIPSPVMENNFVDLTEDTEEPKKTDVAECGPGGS
# Description: In additional experiments, cells were washed with PBS, before being lysed in RIPA buffer supplemented with 1×HALT™ protease inhibitor cocktail (Thermo Scientific) for 10 min on ice, followed by low-amplitude sonication for 10 seconds at 4° C. […] In soluble material was removed by centrifugation at 20,000×g for 20 min before protein content was quantified by BCA assay (Pierce). […] Blots were imaged using fluorescence-labeled secondary antibodies (LI-COR) on the OdysseyCLxImager (LI-COR).
# [32] = system: TRIM33 (PHD, Bromo.); test: BromoScan single-point screen; assay type: binding, human; conditions: percent of protein captured on solid support vs control
# Description: as §1
smiles,measurement,setting,value
COc1cc(-c2cn(C)c(=O)c3cnccc23)cc(OC)c1CN(C)CC(=O)NCCOCCOCCNc1cccc2c1C(=O)N(C1CCC(=O)NC1=O)C2=O (centres unmarked) [Compound I-25],bromodomain interaction profile,[1],exclusive interaction with BRD9; also recorded: exclusively interacts with BRD9
same,efficacy on viability,[2],comparable efficacy
same,% Ctrl @ 1 μM,[3],88 % Ctrl
same,% Ctrl @ 1 μM,[4],88 % Ctrl
same,% Ctrl @ 1 μM,[5],90 % Ctrl
same,% Ctrl @ 1 μM,[6],75 % Ctrl
same,% Ctrl @ 1 μM,[7],87 % Ctrl
same,% Ctrl @ 1 μM,[8],70 % Ctrl
same,% Ctrl @ 1 μM,[9],86 % Ctrl
same,% Ctrl @ 1 μM,[10],79 % Ctrl
same,% Ctrl @ 1 μM,[11],98 % Ctrl
same,% Ctrl @ 1 μM,[12],86 % Ctrl
same,% Ctrl @ 1 μM,[13],75 % Ctrl
same,% Ctrl @ 1 μM,[14],83 % Ctrl
same,% Ctrl @ 1 μM,[15],81 % Ctrl
same,% Ctrl @ 1 μM,[16],81 % Ctrl
same,% Ctrl @ 1 μM,[17],77 % Ctrl
same,% Ctrl @ 1 μM,[18],89 % Ctrl
same,% Ctrl @ 1 μM,[19],94 % Ctrl
same,% Ctrl @ 1 μM,[20],25 % Ctrl
same,% Ctrl @ 1 μM,[21],63 % Ctrl
same,% Ctrl @ 1 μM,[22],75 % Ctrl
same,% Ctrl @ 1 μM,[23],80 % Ctrl
same,% Ctrl @ 1 μM,[24],62 % Ctrl
same,% Ctrl @ 1 μM,[25],14 % Ctrl
same,% Ctrl @ 1 μM,[26],79 % Ctrl
same,% Ctrl @ 1 μM,[27],67 % Ctrl
same,% Ctrl @ 1 μM,[28],85 % Ctrl
same,% Ctrl @ 1 μM,[29],93 % Ctrl
same,% Ctrl @ 1 μM,[30],57 % Ctrl
same,BRD7 degradation (immunoblot),[31],not able to induce degradation of BRD7 at any of the concentrations
same,% Ctrl @ 1 μM,[32],100 % Ctrl
